Test results taken from US20250188040A1, “PHARMACEUTICAL COMPOSITIONS COMPRISING WRN HELICASE INHIBITORS” (Vividion Therapeutics, Inc., priority 2022, published 2025).
Where two headings read alike, the source gives them in different places.

Experiments:
[1] = target: T1, WRN C727 (Homo sapiens, UniProt Q14191); test: Target engagement, in vitro (lysate), OCI-AML2; type: binding; details: read-out: OCI-AML2 WRN C727 TE50 in vitro (lysate)
T1 construct: endogenous in cells; host or cells: OCI-AML2
T1 sequence (Q14191 whole entry): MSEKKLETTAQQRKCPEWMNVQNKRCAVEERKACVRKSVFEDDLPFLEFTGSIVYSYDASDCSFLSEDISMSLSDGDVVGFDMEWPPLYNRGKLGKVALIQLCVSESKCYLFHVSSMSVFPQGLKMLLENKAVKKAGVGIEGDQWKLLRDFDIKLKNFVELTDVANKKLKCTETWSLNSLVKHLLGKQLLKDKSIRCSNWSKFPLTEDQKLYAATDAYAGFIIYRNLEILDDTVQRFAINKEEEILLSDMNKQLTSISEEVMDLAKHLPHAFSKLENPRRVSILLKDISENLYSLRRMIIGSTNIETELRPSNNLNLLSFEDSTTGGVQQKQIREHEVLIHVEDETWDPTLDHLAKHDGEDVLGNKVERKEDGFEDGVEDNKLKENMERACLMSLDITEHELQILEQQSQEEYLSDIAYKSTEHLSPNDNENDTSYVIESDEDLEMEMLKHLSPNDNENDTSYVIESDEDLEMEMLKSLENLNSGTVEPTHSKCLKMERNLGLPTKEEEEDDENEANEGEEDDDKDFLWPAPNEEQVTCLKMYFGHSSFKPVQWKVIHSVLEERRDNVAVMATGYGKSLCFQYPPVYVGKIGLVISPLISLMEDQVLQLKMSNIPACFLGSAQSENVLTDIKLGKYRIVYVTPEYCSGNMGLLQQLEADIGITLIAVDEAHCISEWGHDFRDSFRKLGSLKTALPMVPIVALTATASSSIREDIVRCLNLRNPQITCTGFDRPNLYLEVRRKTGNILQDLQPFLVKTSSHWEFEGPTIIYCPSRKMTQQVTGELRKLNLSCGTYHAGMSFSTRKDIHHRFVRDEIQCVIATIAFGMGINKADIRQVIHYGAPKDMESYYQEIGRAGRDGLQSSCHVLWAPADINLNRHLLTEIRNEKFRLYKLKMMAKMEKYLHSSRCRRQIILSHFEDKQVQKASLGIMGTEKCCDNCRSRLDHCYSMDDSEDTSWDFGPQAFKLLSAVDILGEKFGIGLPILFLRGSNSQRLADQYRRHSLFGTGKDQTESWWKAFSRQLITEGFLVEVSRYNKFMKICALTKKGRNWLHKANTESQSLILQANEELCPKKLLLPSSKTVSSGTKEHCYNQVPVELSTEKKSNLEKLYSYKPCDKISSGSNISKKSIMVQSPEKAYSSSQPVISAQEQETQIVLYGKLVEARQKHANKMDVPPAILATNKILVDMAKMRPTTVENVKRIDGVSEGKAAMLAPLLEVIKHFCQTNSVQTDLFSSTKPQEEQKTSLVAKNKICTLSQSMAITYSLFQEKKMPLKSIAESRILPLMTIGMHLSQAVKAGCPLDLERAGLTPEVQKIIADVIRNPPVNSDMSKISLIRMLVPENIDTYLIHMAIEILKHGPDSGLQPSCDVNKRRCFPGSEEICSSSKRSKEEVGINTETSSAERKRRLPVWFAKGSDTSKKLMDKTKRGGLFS
Experimental: Cells or cell lysates were treated with a dose response of compound followed by probe treatment, which labels solvent exposed cysteines. Proteins were enzymatically digested with trypsin and probe-labelled peptides were enriched with streptavidin. Isolated peptides were then separated using reversed-phase liquid chromatography on a C18 column (Dionex Ultimated 3000 nano-LC, Thermo). Peptides were analyzed by parallel reaction monitoring mass spectrometry (Exploris 120, Thermo).
Target engagement (%) is calculated relative to DMSO treated control samples.

[2] = target: hWRN(519-1227)_C-H3CV-GFP-10His (Homo sapiens, UniProt Q14191); test: Helicase Assay for WRN Inhibition (ATP-dependent, fluorescence based)
Chain of hWRN(519-1227)_C-H3CV-GFP-10His (Q14191 519-1227): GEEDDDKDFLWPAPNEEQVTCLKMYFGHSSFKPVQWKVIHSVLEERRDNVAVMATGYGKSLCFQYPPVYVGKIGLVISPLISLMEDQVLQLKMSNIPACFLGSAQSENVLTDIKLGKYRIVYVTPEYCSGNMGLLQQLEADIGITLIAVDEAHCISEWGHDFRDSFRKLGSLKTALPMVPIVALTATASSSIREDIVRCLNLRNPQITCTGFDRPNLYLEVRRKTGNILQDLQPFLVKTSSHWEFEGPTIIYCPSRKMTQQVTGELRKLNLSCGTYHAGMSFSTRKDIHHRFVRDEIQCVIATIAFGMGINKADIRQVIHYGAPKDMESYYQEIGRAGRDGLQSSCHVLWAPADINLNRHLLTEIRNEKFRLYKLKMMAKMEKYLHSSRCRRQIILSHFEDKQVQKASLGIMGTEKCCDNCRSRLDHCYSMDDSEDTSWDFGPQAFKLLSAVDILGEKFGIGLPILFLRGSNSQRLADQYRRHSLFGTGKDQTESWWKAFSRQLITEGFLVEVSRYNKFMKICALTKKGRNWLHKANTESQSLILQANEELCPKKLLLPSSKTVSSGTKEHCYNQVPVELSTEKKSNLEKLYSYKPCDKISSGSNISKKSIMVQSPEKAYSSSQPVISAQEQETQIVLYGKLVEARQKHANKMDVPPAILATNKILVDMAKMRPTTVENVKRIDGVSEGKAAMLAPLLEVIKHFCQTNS
Experimental: Effects of compounds on WRN helicase activity were assessed with the Helicase Assay for WRN Inhibition. This is an ATP-dependent (inclusion of ATP is important and is required for this assay) fluorescence based assay using recombinant WRN and a fluorogenic DNA substrate.
WRN activity was normalized to signal from wells without WRN protein (background, 0% activity) and wells with protein treated only with DMSO (positive control, 10000 activity). For each compound the potency of inhibition (IC50) was determiined using Graphpad Prism.

[3] = WRN Helicase IC50, 30 min preincubation with ATP, 30 min reaction

SMILES	IC50 [1] [µM]	IC50 [2, 3] [µM]	IC50 [2] [µM]	IC50 ([2]; read-out: WRN Helicase IC50, 30 min preincubation with ATP, 30 min reaction) [µM]
CC(C)(C)c1ncc(C(=O)NC2(C=CS(C)(=O)=O)CC2)c(Oc2ccccc2)n1 (racemic) [Example 59, 2-(tert-butyl)-N-(1-(2-(methylsulfonyl)vinyl)cyclopropyl)-4-phenoxypyrimidine-5-carboxamide]	> 100	54	–	–
C[C@@H](/C=C/S(C)(=O)=O)NC(=O)c1cnc(C2CCCC2)nc1O[C@H]1CCCC[C@H]1O (single isomer, unassigned) [Example 129]	> 100	85	–	–
C[C@@H](/C=C/S(C)(=O)=O)NC(=O)c1cnc(C2CCCC2)nc1O[C@@H]1CCCC[C@@H]1O (single isomer, unassigned) [Example 130]	> 100	50	–	–
C[C@@H](/C=C/S(C)(=O)=O)NC(=O)c1cnc(C2CCCC2)nc1O[C@H]1CCCC[C@@H]1O (single isomer, unassigned) [Example 131]	> 100	24	–	–
C[C@@H](/C=C/S(C)(=O)=O)NC(=O)c1cnc(C2CCCC2)nc1O[C@@H]1CCCC[C@H]1O (single isomer, unassigned) [Example 132]	> 100	30	–	–
CC1CC[C@@H](C)N1c1ncc(C(=O)N[C@@H](C)/C=C/S(C)(=O)=O)c(Oc2ccccc2)n1 (stereo in doubt) [Example 172, 2-((2R,5S)-2,5-dimethylpyrrolidin-1-yl)-N—((S,E)-4-(methylsulfonyl)but-3-en-2-yl)-4-phenoxypyrimidine-5-carboxamide]	31.2	13	–	–
O=C(NC1C=CS(=O)(=O)C1)c1cnc(C2CC2)nc1Oc1ccccc1 (stereo not drawn) [Example 27, 2-cyclopropyl-N-(1,1-dioxido-2,3-dihydrothiophen-3-yl)-4-phenoxypyrimidine-5-carboxamide]	–	–	34	–
CO[C@H](C)[C@@H](/C=C/S(C)(=O)=O)NC(=O)c1cnc(C2CC2)nc1Oc1ccccc1 [Example 32, 2-cyclopropyl-N-((3R,4R,E)-4-methoxy-1-(methylsulfonyl)pent-1-en-3-yl)-4-phenoxypyrimidine-5-carboxamide]	> 100	35	–	–
CS(=O)(=O)C1=CCN(C(=O)c2cnc(C3CC3)nc2Oc2ccccc2)C1 [Example 34, (2-cyclopropyl-4-phenoxypyrimidin-5-yl)(3-(methylsulfonyl)-2,5-dihydro-1H-pyrrol-1-yl)methanone]	> 100	–	26	–
C[C@@H](/C=C/S(C)(=O)=O)NC(=O)c1cnc(C2Cc3ccccc32)nc1Oc1ccccc1 (stereo partly drawn) [Example 52, 2-(bicyclo[4.2.0]octa-1,3,5-trien-7-yl)-N—((S,E)-4-(methylsulfonyl)but-3-en-2-yl)-4-phenoxypyrimidine-5-carboxamide]	> 100	66	–	–
C[C@@H](/C=C/S(C)(=O)=O)NC(=O)c1cnc(C2CCOC2)nc1Oc1ccccc1 (stereo partly drawn) [Example 79, N—((S,E)-4-(methylsulfonyl)but-3-en-2-yl)-4-phenoxy-2-(tetrahydrofuran-3-yl)pyrimidine-5-carboxamide]	> 100	18	–	–
Cc1ccc(Oc2nc(C3CCCC3)ncc2C(=O)NC/C=C/S(C)(=O)=O)cc1 [Example 104, (E)-2-cyclopentyl-N-(3-(methylsulfonyl)allyl)-4-(p-tolyloxy)pyrimidine-5-carboxamide]	21.8	19	–	–
Cc1ccccc1Oc1nc(C2CCCC2)ncc1C(=O)N[C@@H](C)/C=C/S(C)(=O)=O [Example 106, (S,E)-2-cyclopentyl-N-(4-(methylsulfonyl)but-3-en-2-yl)-4-(o-tolyloxy)pyrimidine-5-carboxamide]	> 100	24	–	–
CCc1ccc(Oc2nc(C3CCCC3)ncc2C(=O)N[C@@H](C)/C=C/S(C)(=O)=O)cc1 [Example 107, (S,E)-2-cyclopentyl-4-(4-ethylphenoxy)-N-(4-(methylsulfonyl)but-3-en-2-yl)pyrimidine-5-carboxamide]	> 100	82	–	–
Cc1ccc(Oc2nc(C3CCCC3)ncc2C(=O)N[C@@H](C)/C=C/S(C)(=O)=O)cc1C [Example 109, (S,E)-2-cyclopentyl-4-(3,4-dimethylphenoxy)-N-(4-(methylsulfonyl)but-3-en-2-yl)pyrimidine-5-carboxamide]	> 100	183	–	–
C[C@@H](/C=C/S(C)(=O)=O)NC(=O)c1cnc(C2CCCC2)nc1Oc1ccccn1 [Example 126, (S,E)-2-cyclopentyl-N-(4-(methylsulfonyl)but-3-en-2-yl)-4-(pyridin-2-yloxy)pyrimidine-5-carboxamide]	> 100	44.4	–	–
C[C@@H](/C=C/S(C)(=O)=O)NC(=O)c1cnc(C2CCCC2)nc1O[C@H]1CCCOC1 [Example 134, 2-cyclopentyl-N—((S,E)-4-(methylsulfonyl)but-3-en-2-yl)-4-(((S)-tetrahydro-2H-pyran-3-yl)oxy)pyrimidine-5-carboxamide]	> 100	53	–	–

SMILES	IC50 [1] [µM]	IC50 [2, 3] [µM]	IC50 [2] [µM]	IC50 ([2]; read-out: WRN Helicase IC50, 30 min preincubation with ATP, 30 min reaction) [µM]
C[C@@H](/C=C/S(C)(=O)=O)NC(=O)c1cnc(C2CCCC2)nc1Oc1ccc(O)cc1 [Example 135, (S,E)-2-cyclopentyl-4-(4-hydroxyphenoxy)-N-(4-(methylsulfonyl)but-3-en-2-yl)pyrimidine-5-carboxamide]	75	70	–	–
C[C@@H](/C=C/S(C)(=O)=O)NC(=O)c1cnc(C2CCCC2)nc1Oc1cccc(N)c1 [Example 138, (S,E)-4-(3-aminophenoxy)-2-cyclopentyl-N-(4-(methylsulfonyl)but-3-en-2-yl)pyrimidine-5-carboxamide]	> 100	19	–	–
C[C@@H](/C=C/S(C)(=O)=O)NC(=O)c1cnc(C2CC2)nc1OC1CC2(CCC2)C1 [Example 141, (S,E)-2-cyclopropyl-N-(4-(methylsulfonyl)but-3-en-2-yl)-4-(spiro[3.3]heptan-2-yloxy)pyrimidine-5-carboxamide]	> 100	118	–	–
C[C@@H](/C=C/S(C)(=O)=O)NC(=O)c1cnc(C2CC2)nc1OC1CC2(CC2)C1 [Example 142, (S,E)-2-cyclopropyl-N-(4-(methylsulfonyl)but-3-en-2-yl)-4-(spiro[2.3]hexan-5-yloxy)pyrimidine-5-carboxamide]	50	20	–	–
CC(C)(C)c1ncc(C(=O)NC/C=C/S(C)(=O)=O)c(O[C@H]2C[C@@H]3C[C@@H]3C2)n1 [Example 145, 4-(((1R,3s,5S)-bicyclo[3.1.0]hexan-3-yl)oxy)-2-(tert-butyl)-N—((E)-3-(methylsulfonyl)allyl)pyrimidine-5-carboxamide]	>100	–	–	59
C[C@@H](/C=C/S(C)(=O)=O)NC(=O)c1cnc(C2CC2)nc1OC1CCC(F)(F)C1 (stereo partly drawn) [Example 146, 2-cyclopropyl-4-((3,3-difluorocyclopentyl)oxy)-N—((S,E)-4-(methylsulfonyl)but-3-en-2-yl)pyrimidine-5-carboxamide]	–	53	–	–
COC1CN(c2ncc(C(=O)N[C@@H](C)/C=C/S(C)(=O)=O)c(Oc3ccccc3)n2)C1 [Example 169, (S,E)-2-(3-methoxyazetidin-1-yl)-N-(4-(methylsulfonyl)but-3-en-2-yl)-4-phenoxypyrimidine-5-carboxamide]	–	110	–	–
CS(=O)(=O)/C=C/CNC(=O)c1ccc(C2CCCC2)cc1OC1CCCC1 [Example 198, (E)-4-cyclopentyl-2-(cyclopentyloxy)-N-(3-(methylsulfonyl)allyl)benzamide]	–	27	–	–
C[C@@H](/C=C/S(C)(=O)=O)NC(=O)c1ccc(C2CCCC2)c2cccnc12 [Example 203, (S,E)-5-cyclopentyl-N-(4-(methylsulfonyl)but-3-en-2-yl)quinoline-8-carboxamide]	–	–	77	–
Cc1c(C2CC2)ncc(C(=O)N[C@@H](C)/C=C/S(C)(=O)=O)c1Oc1ccccc1 [Example 204, (S,E)-6-cyclopropyl-5-methyl-N-(4-(methylsulfonyl)but-3-en-2-yl)-4-phenoxynicotinamide]	–	96	–	–
C[C@@H](/C=C/S(C)(=O)=O)NC(=O)c1cc2c(cc1Oc1ccccc1)CC(C)(C)C2=O [Example 248, (S,E)-2,2-dimethyl-N-(4-(methylsulfonyl)but-3-en-2-yl)-3-oxo-6-phenoxy-2,3-dihydro-1H-indene-5-carboxamide]	–	–	63	–
CC1(C)Cc2cc(Oc3ccccc3)c(C(=O)N3CC(=CS(C)(=O)=O)C3)cc2C1=O [Example 249, 2,2-dimethyl-6-(3-((methylsulfonyl)methylene)azetidine-1-carbonyl)-5-phenoxy-2,3-dihydro-1H-inden-1-one]	–	–	39	–
Cn1cnc2cc(C(=O)N[C@H](/C=C/S(C)(=O)=O)C3CC3)c(Oc3ccccc3)nc21 [Example 251, (S,E)-N-(1-cyclopropyl-3-(methylsulfonyl)allyl)-3-methyl-5-phenoxy-3H-imidazo[4,5-b]pyridine-6-carboxamide]	–	103	–	–
N#C/C=C/CNC(=O)c1cnc(C2CC2)nc1Oc1ccccc1 [Example 266, (E)-N-(3-cyanoallyl)-2-cyclopropyl-4-phenoxypyrimidine-5-carboxamide]	–	116	–	–
N#C/C=C\CNC(=O)c1cnc(C2CC2)nc1Oc1ccccc1 [Example 267, (Z)—N-(3-cyanoallyl)-2-cyclopropyl-4-phenoxypyrimidine-5-carboxamide]	–	29	–	–
CS(=O)(=O)/C=C/CNC(=O)c1ccc(C2CCCC2)cc1OC1CC1 [Example 283, (E)-4-cyclopentyl-2-cyclopropoxy-N-(3-(methylsulfonyl)allyl)benzamide]	–	64	–	–
